Converted amounts (≈) assume the structure as drawn.
Key:
[1] = test system: E. coli GC 6265 TEM-1 (LSU-80-8); assay: In vivo antibacterial protection, infected mice; conditions: 168 h, read-out: ED50 mg/kg/SIV
Protocol: Female mice strain CD-1, approximately 18-22 grams, were received from Charles River Laboratories and quarantined 7 days prior to use.
Clinical isolates that were adapted to cause infection in mice were used in the experiment, including infections with strains of E. coli and E. cloacae.
Mice were challenged by injecting 0.5 ml intraperitoneally of a predetermined bacterial inoculum suspended in 5% hog gastric mucin. The bacterial inoculum was equivalent to 10-100 LD50s of the specific infecting strain and was designed to result in death of the non-treated control animals within 7 days. Antibacterial doses (dose concentration prepared by two fold serial dilutions of the antibiotic or antibiotic/compound combination) were dissolved or suspended in 0.2% aqueous agar (subcutaneous administration) or phosphate buffered saline (intravenous administration) and administered intravenously or subcutaneously in the following manner:
a) Subcutaneously: Dose volume of 0.5 ml was administered ½ hr after infection. […]
A detailed explanation of the protocol for the determination of in vivo efficacy follows: • A) The effectiveness of the lacamase inhibitor compound/cefepime combination was evaluated against a cefepime control. […]
The protective effects of the antibacterial agent(s) were measured by the survival of the infected untreated as compared to the treated animals. […]

[2] = test system: A. baumannii GC 7687 AmpC; assay: MIC microbroth dilution; assay type: cell-based; conditions: Acinetobacter baumannii, GC7687AMPC, β-lactamase class C, MHBII, 35° C. 18 hr, read-out: Minimal Inhibitory Concentration
In short: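 MHBII, NCCLS microbroth dilution; 35 C, ambient air, 18-22 hours.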

CO/N=C(\C(=O)N[C@@H]1C(=O)N2C(C(=O)[O-])=C(C[N+]3(C)CCCC3)CS[C@H]12)c1csc(N)n1 [Cefepime]
ED50 [1]: 0.039 mg/kg
MIC [2]: 16 µg/mL (≈ 33.3 µM)
